Where two headings read alike, the source gives them in different places. Where no end group is shown, it is not given here.
Assays:
HLA-A2402 = HLA-A2402 (Homo sapiens, UniProt P04439, D101N/D140Y/D185E/E176V/E190D/F33S/G103R/G107R/I119L/I121M/I306V/K335N/L105A/L180Q/L300P/N151K/N90K/Q86E/Q94H/R106L/R138H/R89G/T104I/T345S/V100E/W191G/Y123F); test: cell-based; format: binding; details: for inhibition at 5 µM / inhibition at 15 µM / 5-μM inhibition (%) / 15-μM inhibition (%): A2402, 24 h, 4°C, flow cytometry; for inhibition at 5 µM / 5-μM inhibition (%): peptide 5 μM vs FITC-labeled reference peptide 300 nM; for inhibition at 15 µM / 15-μM inhibition (%): peptide 15 μM vs FITC-labeled reference peptide 300 nM
HLA-A1101 = molecular target: T1, HLA-A1101 (Homo sapiens, UniProt P04439, A114D/D185E/E176A/F33Y/L180Q/S129P/T187R); test: cell-based; format: binding; details: for inhibition at 5 µM / 5-μM inhibition (%): peptide 5 μM vs FITC-labeled reference peptide 300 nM; for inhibition at 5 µM / inhibition at 15 µM / 5-μM inhibition (%) / 15-μM inhibition (%): 24 h, 4°C, flow cytometry; for inhibition at 5 µM: read-out: 5-μM inhibition (%); for inhibition at 15 µM / 15-μM inhibition (%): peptide 15 μM vs FITC-labeled reference peptide 300 nM; for inhibition at 15 µM: read-out: 15-μM inhibition (%)
T1 construct: expressed in transfected cells; host or cells: HMy2.CIR

HLA-A0201 = molecular target: T2, HLA-A0201 (Homo sapiens, UniProt P04439, D140Y/D185E/D98H/E176V/E277Q/G131W/G231S/I119V/I121R/I166T/I218V/L300P/L318F/N151K/N90K/P208A/P217A/Q86G/Q94H/R138H/R169H/T345S); test: cell-based; format: binding; details: for inhibition at 5 µM: peptide 5 μM vs FITC-labeled reference peptide 300 nM, read-out: 5-μM inhibition (%); for inhibition at 5 µM / inhibition at 15 µM: 24 h, 4°C, flow cytometry; for inhibition at 15 µM: peptide 15 μM vs FITC-labeled reference peptide 300 nM, read-out: 15-μM inhibition (%)
T2 construct: expressed in transfected cells; host or cells: HMy2.CIR

HLA-A0203 = molecular target: T3, HLA-A0203 (Homo sapiens, UniProt P04439, A173T/D140Y/D185E/D98H/E277Q/G131W/G231S/I119V/I121R/I166T/I218V/L180W/L300P/L318F/N151K/N90K/P208A/P217A/Q86G/Q94H/R138H/R169H/T345S); test: cell-based; format: binding; details: for inhibition at 5 µM / inhibition at 15 µM: A0203, 24 h, 4°C, flow cytometry; for inhibition at 5 µM: peptide 5 μM vs FITC-labeled reference peptide 300 nM, read-out: 5-μM inhibition (%); for inhibition at 15 µM: peptide 15 μM vs FITC-labeled reference peptide 300 nM, read-out: 15-μM inhibition (%)
T3 construct: expressed in transfected cells; host or cells: HMy2.CIR

HLA-A3303 = HLA-A3303 (Homo sapiens, UniProt P04439, A270S/D185E/E176V/E277Q/E87N/F33T/G231S/H175R/I121M/I218V/I322F/K168Q/L300P/L318F/M331R/P217A/Q86R/Q94H/R138Q/T323A/T345S/T97I/V358M); test: Peptide competitive binding assay, HMy2.CIR cells expressing A3303; details: for inhibition at 5 µM / inhibition at 15 µM / 5-μM inhibition (%) / 15-μM inhibition (%): A3303, 24 h, 4°C, flow cytometry; for inhibition at 5 µM / 5-μM inhibition (%): peptide 5 μM vs FITC-labeled reference peptide 300 nM; for inhibition at 15 µM / 15-μM inhibition (%): peptide 15 μM vs FITC-labeled reference peptide 300 nM; for IC50: read-out: Affinity
[1] = A1101, class from inhibition at 5 and 15 μM of FITC-labeled reference peptide binding, read-out: Affinity

Sequence: TYQIYQEPF [Peptide P58]
- IC50 (HLA-A2402): < 5 µM
- inhibition at 5 µM (HLA-A2402): 54.1%
- inhibition at 15 µM (HLA-A2402): 95.3%

Sequence: GSNFTSAAVK [Peptide P37]
- IC50 (HLA-A1101): < 5 µM
- inhibition at 5 µM (HLA-A1101; A1101): 74%
- inhibition at 15 µM (HLA-A1101; A1101): 91%

Sequence: WYIKIFIMI [Peptide P51]
- 5-μM inhibition (%) (HLA-A2402): 3.34%
- 15-μM inhibition (%) (HLA-A2402): 29.97%

Sequence: RQGTISFNF [Peptide P61]
- 5-μM inhibition (%) (HLA-A2402): 12.82%
- 15-μM inhibition (%) (HLA-A2402): 41.47%

Sequence: CTPAGYAILK [Peptide P23]
- IC50 (HLA-A1101; [1]): < 5 µM
- inhibition at 5 µM (HLA-A1101; A1101): 70.1%
- inhibition at 15 µM (HLA-A1101; A1101): 88.1%

Sequence: IIFAVLSIV [Peptide P5]
- inhibition at 5 µM (HLA-A0201; A0201): 20.6%
- inhibition at 15 µM (HLA-A0201; A0201): 42.8%
- IC50 (HLA-A0203): 5 to 15 µM
- inhibition at 5 µM (HLA-A0203): 31%
- inhibition at 15 µM (HLA-A0203): 64.6%

Sequence: ITNWLWYIK [Peptide P20]
- IC50 (HLA-A1101): < 5 µM
- inhibition at 5 µM (HLA-A1101; A1101): 69.8%
- inhibition at 15 µM (HLA-A1101; A1101): 71%

Sequence: HYMLKHLVW [Peptide P55]
- 5-μM inhibition (%) (HLA-A2402): 13.48%
- 15-μM inhibition (%) (HLA-A2402): 31.20%

Sequence: IVKCFNCGK [Peptide P32]
- 5-μM inhibition (%) (HLA-A1101; A1101): 20.16%
- 15-μM inhibition (%) (HLA-A1101; A1101): 36.81%

Sequence: DAWEKIRLR [Peptide P104]
- inhibition at 5 µM (HLA-A3303): 71.8%
- inhibition at 15 µM (HLA-A3303): 82.5%
- IC50 (HLA-A3303): < 5 µM

Sequence: MYSPVSILDI [Peptide P53]
- IC50 (HLA-A2402): < 5 µM
- inhibition at 5 µM (HLA-A2402): 75.5%
- inhibition at 15 µM (HLA-A2402): 98.1%

Sequence: PYNTPVFAI [Peptide P63]
- IC50 (HLA-A2402): 5 to 15 µM
- inhibition at 5 µM (HLA-A2402): 25.7%
- inhibition at 15 µM (HLA-A2402): 55.6%

Sequence: MYSPTSILDI [Peptide P52]
- IC50 (HLA-A2402): 5 to 15 µM
- inhibition at 5 µM (HLA-A2402): 21.6%
- inhibition at 15 µM (HLA-A2402): 79.4%

Sequence: QTNSAILMQR [Peptide P105]
- 5-μM inhibition (%) (HLA-A3303): 29.22%
- 15-μM inhibition (%) (HLA-A3303): 45.63%

Sequence: VTENFNMWK [Peptide P26]
- IC50 (HLA-A1101): < 5 µM
- inhibition at 5 µM (HLA-A1101; A1101): 86.6%
- inhibition at 15 µM (HLA-A1101; A1101): 92.9%

Sequence: ASCDQCQLK [Peptide P38]
- 5-μM inhibition (%) (HLA-A1101; A1101): 12.62%
- 15-μM inhibition (%) (HLA-A1101; A1101): 33.56%

Sequence: SILRGGKLDK [Peptide P30]
- 5-μM inhibition (%) (HLA-A1101; A1101): 19.77%
- 15-μM inhibition (%) (HLA-A1101; A1101): 47.09%

Sequence: ALFYKLDIV [Peptide P2]
- IC50 (HLA-A0201): 5 to 15 µM
- inhibition at 5 µM (HLA-A0201; A0201): 23.2%
- inhibition at 15 µM (HLA-A0201; A0201): 70.5%
- IC50 (HLA-A0203): 5 to 15 µM
- inhibition at 5 µM (HLA-A0203): 26.1%
- inhibition at 15 µM (HLA-A0203): 61.9%

Sequence: MAVFIHNFKR [Peptide P109]
- inhibition at 5 µM (HLA-A3303): 55.1%
- inhibition at 15 µM (HLA-A3303): 56.1%
- IC50 (HLA-A3303): < 5 µM

Sequence: IYKRWIILGL [Peptide P56]
- 5-μM inhibition (%) (HLA-A2402): 20.61%
- 15-μM inhibition (%) (HLA-A2402): 25.51%

Sequence: FYCNTTKLF [Peptide P49]
- IC50 (HLA-A2402): 5 to 15 µM
- inhibition at 5 µM (HLA-A2402): 49.2%
- inhibition at 15 µM (HLA-A2402): 60.5%

Sequence: ALTDIVPLT [Peptide P12]
- IC50 (HLA-A0201): 5 to 15 µM
- inhibition at 5 µM (HLA-A0201; A0201): 28%
- inhibition at 15 µM (HLA-A0201; A0201): 72.2%

Sequence: NITGILLTR [Peptide P107]
- 5-μM inhibition (%) (HLA-A3303): 34.61%
- 15-μM inhibition (%) (HLA-A3303): 49.22%

Sequence: SVQCTHGIK [Peptide P25]
- IC50 (HLA-A1101; [1]): < 5 µM
- inhibition at 5 µM (HLA-A1101; A1101): 61.4%
- inhibition at 15 µM (HLA-A1101; A1101): 85.6%

Sequence: TTLFCASDAK [Peptide P28]
- IC50 (HLA-A1101): < 5 µM
- inhibition at 5 µM (HLA-A1101; A1101): 78.4%
- inhibition at 15 µM (HLA-A1101; A1101): 92.2%

Sequence: SLVDTIAIAV [Peptide P1]
- IC50 (HLA-A0201; A0201, class from inhibition at 5 and 15 μM of FITC-labeled reference peptide binding, read-out: Affinity): 5 to 15 µM
- inhibition at 5 µM (HLA-A0201; A0201): 38%
- inhibition at 15 µM (HLA-A0201; A0201): 78.5%
- inhibition at 5 µM (HLA-A0203): 28.2%
- inhibition at 15 µM (HLA-A0203): 31.9%

Sequence: QTVYALFYR [Peptide P108]
- 5-μM inhibition (%) (HLA-A3303): 35.63%
- 15-μM inhibition (%) (HLA-A3303): 40.50%
